Results: patent US20140045823A1 (Neurocrine Biosciences, Inc., priority 2012, published 2014)

Molecular target: T1, human GPR119 (Homo sapiens, UniProt Q8TDV5)
T1 construct: expression vector for human GPR119 cDNA (Acc. No. NP_848566); expressed in transfected cells; Min-6/hGPR119
T1 sequence (Q8TDV5 1-335): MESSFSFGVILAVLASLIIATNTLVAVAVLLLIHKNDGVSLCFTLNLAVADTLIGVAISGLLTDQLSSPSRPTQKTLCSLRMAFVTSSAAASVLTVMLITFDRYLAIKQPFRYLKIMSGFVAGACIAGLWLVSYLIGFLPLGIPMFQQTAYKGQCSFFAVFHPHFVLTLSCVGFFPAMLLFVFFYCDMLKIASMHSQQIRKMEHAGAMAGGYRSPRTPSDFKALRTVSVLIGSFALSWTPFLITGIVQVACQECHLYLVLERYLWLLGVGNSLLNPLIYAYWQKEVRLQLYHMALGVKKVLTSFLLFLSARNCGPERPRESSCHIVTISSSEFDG
Assay: AlphaScreen cAMP assay in MIN6 cells stably transfected with human GPR119
Format: cell-based
Conditions: Min-6/hGPR119 cells, 45 min at room temperature
Procedure, shortened: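 cAMP accumulation quantified by AlphaScreen after 45 min compound stimulation at about 20 °C. Stimulation buffer: pH 7.4 HEPES saline with 0.5 mM IBMX, 0.1% BSA, 1% DMSO final. Cells: MIN6 stably transfected with human GPR119, 10000/well, cultured 24 h beforehand.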

With CC(C)(C)OC(=O)N1CCC(N(C(=O)c2cnc(-c3ccc(CC(=O)Nc4cccc(CO)c4)cc3)nc2)C2CC2)CC1 [Example 217, 4-[Cyclopropyl-(2-{4-[(3-hydroxymethyl-phenylcarbamoyl)-methyl]-phenyl}-pyrimidine-5-carbonyl)-amino]-piperidine-1-carboxylic acid tert-butyl ester] the EC50 was 550 nM.

With CN(CC#N)C(=O)Cc1ccc(-c2ncc(C(=O)N(C3CC3)C3CCN(C(=O)OC(C)(C)C)CC3)cn2)cc1 [Example 218, 4-[(2-{4-[(Cyanomethyl-methyl-carbamoyl)-methyl]-phenyl}-pyrimidine-5-carbonyl)-cyclopropyl-amino]-piperidine-1-carboxylic acid tert-butyl ester] the EC50 was 216 nM.

Molecule CC(C)(C)OC(=O)N1CCC(N(C(=O)c2cnc(-c3ccc(CC(=O)NCC4CCCCO4)cc3)nc2)C2CC2)CC1 (stereo not shown) [Example 219, 4-{Cyclopropyl-[2-(4-{[(tetrahydro-pyran-2-ylmethyl)-carbamoyl]-methyl}-phenyl)-pyrimidine-5-carbonyl]-amino}-piperidine-1-carboxylic acid tert-butyl ester] has an EC50 of 375 nM.

CN(CCOCC1CC1)C(=O)c1ccc(-c2ncc(C(=O)N(C3CC3)C3CCN(C(=O)OC(C)(C)C)CC3)cn2)cc1 [Example 220, 4-[Cyclopropyl-(2-{4-[(2-cyclopropylmethoxy-ethyl)-methyl-carbamoyl]-phenyl}-pyrimidine-5-carbonyl)-amino]-piperidine-1-carboxylic acid tert-butyl ester] gave an EC50 of 183 nM.

With CN(CC#N)C(=O)c1ccc(-c2ncc(C(=O)N(C3CC3)C3CCN(C(=O)OC(C)(C)C)CC3)cn2)cc1 [Example 221, 4-({2-[4-(Cyanomethyl-methyl-carbamoyl)-phenyl]-pyrimidine-5-carbonyl}-cyclopropyl-amino)-piperidine-1-carboxylic acid tert-buyl ester] the EC50 was 110 nM.

In the case of CN(C(=O)c1ccc(-c2ncc(C(=O)N(C3CC3)C3CCN(C(=O)OC(C)(C)C)CC3)cn2)cc1)C1CCCOC1 (stereo not shown) [Example 222, 4-[Cyclopropyl-(2-{4-[methyl-(tetrahydro-pyran-3-yl)-carbamoyl]-phenyl}-pyrimidine-5-carbonyl)-amino]-piperidine-1-carboxylic acid tert-butyl ester], the EC50 is reported as 545 nM.

CN(CC(C)(C)O)C(=O)c1ccc(-c2ncc(C(=O)N(C3CC3)C3CCN(C(=O)OC(C)(C)C)CC3)cn2)cc1 [Example 223, 4-[Cyclopropyl-(2-{4-[(2-hydroxy-2-methyl-propyl)-methyl-carbamoyl]-phenyl}-pyrimidine-5-carbonyl)-amino]-piperidine-1-carboxylic acid tert-butyl ester] gave an EC50 of 634 nM.

With CC(C)(C)OC(=O)N1CCC(N(C(=O)c2cnc(-c3ccc(C(=O)NCc4ccccn4)cc3)nc2)C2CC2)CC1 [Example 224, 4-[Cyclopropyl-(2-{4-[(pyridin-2-ylmethyl)-carbamoyl]-phenyl}-pyrimidine-5-carbonyl)-amino]-piperidine-1-carboxylic acid tert-butyl ester] the EC50 was 157 nM.

CC(C)(C)OC(=O)N1CCC(N(C(=O)c2cnc(-c3ccc(C(=O)NCC4CCCCO4)cc3)nc2)C2CC2)CC1 (stereo not shown) [Example 225, 4-[Cyclopropyl-(2-{4-[(tetrahydro-pyran-2-ylmethyl)-carbamoyl]-phenyl}-pyrimidine-5-carbonyl)-amino]-piperidine-1-carboxylic acid tert-butyl ester] showed an EC50 of 185 nM.

For COC1CN(C(=O)c2ccc(-c3ncc(C(=O)N(C4CC4)C4CCN(C(=O)OC(C)(C)C)CC4)cn3)cc2)C1 [Example 226, 4-(Cyclopropyl-{2-[4-(3-methoxy-azetidine-1-carbonyl)-phenyl]-pyrimidine-5-carbonyl}-amino)-piperidine-1-carboxylic acid tert-butyl ester], the EC50 was 179 nM.

Work on CC(C)(C)OC(=O)N1CCC(N(C(=O)c2cnc(-c3ccc(C(=O)NCCOC(F)(F)F)cc3)nc2)C2CC2)CC1 [Example 227, 4-(Cyclopropyl-{2-[4-(2-trifluoromethoxy-ethylcarbamoyl)-phenyl]-pyrimidine-5-carbonyl]-amino)-piperidine-1-carboxylic acid tert-butyl ester] yielded an EC50 of 161 nM.

In the case of CC(C)(C)OC(=O)N1CCC(N(C(=O)c2cnc(-c3ccc(C(=O)NCc4cocn4)cc3)nc2)C2CC2)CC1 [Example 228, 4-[Cyclopropyl-(2-{4-[(oxazol-4-ylmethyl)-carbamoyl]-phenyl}-pyrimidine-5-carbonyl)-amino]-piperidine-1-carboxylic acid tert-butyl ester], the EC50 is reported as 379 nM.

With CC(C)(C)OC(=O)N1CCC(N(C(=O)c2cnc(-c3ccc(C(=O)NCc4cccnc4)cc3)nc2)C2CC2)CC1 [Example 229, 4-[Cyclopropyl-(2-{4-[(pyridin-3-ylmethyl)-carbamoyl]-phenyl}-pyrimidine-5-carbonyl)-amino]-piperidine-1-carboxylic acid tert-butyl ester] the EC50 was 177 nM.

Work on CC(C)(C)OC(=O)N1CCC(N(C(=O)c2cnc(-c3ccc(C(=O)N4CCOCC4)cc3)nc2)C2CC2)CC1 [Example 230, 4-(Cyclopropyl-{2-[4-(morpholine-4-carbonyl)-phenyl]-pyrimidine-5-carbonyl}-amino)-piperidine-1-carboxylic acid tert-butyl ester] yielded an EC50 of 297 nM.

In the case of CC(C)(C)OC(=O)N1CCC(N(C(=O)c2cnc(-c3ccc(C(=O)Nc4ccnnc4)cc3)nc2)C2CC2)CC1 [Example 231, 4-(Cyclopropyl-{2-[4-(pyridazin-4-ylcarbamoyl)-phenyl]-pyrimidine-5-carbonyl}-amino)-piperidine-1-carboxylic acid tert-butyl ester], the EC50 is reported as 414 nM.

For CC(C)(C)OC(=O)N1CCC(N(C(=O)c2cnc(-c3ccc(C(=O)NCc4cccnn4)c(F)c3)nc2)C2CC2)CC1 [Example 232, 4-[Cyclopropyl-(2-{3-fluoro-4-[(pyridazin-3-ylmethyl)-carbamoyl]-phenyl}-pyrimidine-5-carbonyl)-amino]-piperidine-1-carboxylic acid tert-butyl ester], the EC50 was 422 nM.

CN(CCC#N)C(=O)c1ccc(-c2ncc(C(=O)N(C3CC3)C3CCN(C(=O)OC(C)(C)C)CC3)cn2)cc1F [Example 234, 4-[(2-{4-[(2-Cyano-ethyl)-methyl-carbamoyl]-3-fluoro-phenyl}-pyrimidine-5-carbonyl)-cyclopropyl-amino]-piperidine-1-carboxylic acid tert-butyl ester] gave an EC50 of 297 nM.

For COC[C@H]1CCCN1C(=O)Cc1ccc(-c2ncc(C(=O)N(C3CC3)C3CCN(C(=O)OC(C)(C)C)CC3)cn2)cc1 [Example 235, 4-[Cyclopropyl-(2-{4-[2-(2-methoxymethyl-pyrrolidin-1-yl)-2-oxo-ethyl]-phenyl}-pyrimidine-5-carbonyl)-amino]-piperidine-1-carboxylic acid tert-butyl ester], the EC50 was 307 nM.

Work on CN(Cc1cccnc1)C(=O)Cc1ccc(-c2ncc(C(=O)N(C3CC3)C3CCN(C(=O)OC(C)(C)C)CC3)cn2)cc1 [Example 236, 4-[Cyclopropyl-(2-{4-[(methyl-pyridin-3-ylmethyl-carbamoyl)-methyl]-phenyl}-pyrimdine-5-carbonyl)-amino]-piperidine-1-carboxylic acid tert-butyl ester] yielded an EC50 of 317 nM.

Molecule CC(C)(C)OC(=O)N1CCC(N(C(=O)c2cnc(-c3ccc(C(=O)NCC4CCOC4)cc3)nc2)C2CC2)CC1 (stereo not shown) [Example 237, 4-[Cyclopropyl-(2-{4-[(tetrahydro-furan-3-ylmethyl)-carbamoyl]-phenyl}-pyrimidine-5-carbonyl)-amino]-piperidine-1-carboxylic acid tert-butyl ester] has an EC50 of 408 nM.

COc1ccc(NC(=O)c2ccc(-c3ncc(C(=O)N(C4CC4)C4CCN(C(=O)OC(C)(C)C)CC4)cn3)cc2)c(OC)c1 [Example 238, 4-(Cyclopropyl-{2-[4-(2,4-dimethoxy-phenylcarbamoyl)-phenyl]-pyrimidine-5-carbonyl}-amino)-piperidine-1-carboxylic acid tert-butyl ester] gave an EC50 of 111 nM.

Molecule CC(C)(C)OC(=O)N1CCC(N(C(=O)c2cnc(-c3ccc(C(=O)N4CCC(C#N)C4)cc3)nc2)C2CC2)CC1 (stereo not shown) [Example 239, 4-({2-[4-(3-Cyano-pyrrolidine-1-carbonyl)-phenyl]-pyrimidine-5-carbonyl}-cyclopropyl-amino)-piperidine-1-carboxylic acid tert-butyl ester] has an EC50 of 424 nM.

COCc1cccc(NC(=O)c2ccc(-c3ncc(C(=O)N(C4CC4)C4CCN(C(=O)OC(C)(C)C)CC4)cn3)cc2)c1 [Example 240, 4-(Cyclopropyl-{2-[4-(3-methoxymethyl-phenylcarbamoyl)-phenyl]-pyrimidine-5-carbonyl}-amino)-piperidine-1-carboxylic acid tert-butyl ester] was tested, and the EC50 was 171 nM.

CC(C)(C)OC(=O)N1CCC(N(C(=O)c2cnc(-c3ccc(C(=O)NCc4ccncc4)cc3)nc2)C2CC2)CC1 [Example 241, 4-[Cyclopropyl-(2-{4-[(pyridin-4-ylmethyl)-carbamoyl]-phenyl}-pyrimidine-5-carbonyl)-amino]-piperidine-1-carboxylic acid tert-butyl ester] showed an EC50 of 245 nM.

Molecule CC(C)(C)OC(=O)N1CCC(N(C(=O)c2cnc(-c3ccc(C(=O)N4CCCC4CO)cc3)nc2)C2CC2)CC1 (stereo not shown) [Example 242, 4-(Cyclopropyl-{2-[4-(2-hydroxymethyl-pyrrolidine-1-carbonyl)-phenyl]-pyrimidine-5-carbonyl}-amino)-piperidine-1-carboxylic acid tert-butyl ester] has an EC50 of 593 nM.
